# Source: ChEMBL document CHEMBL1201862, “PubChem BioAssay data set” (2004)
#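 Assay format: 96-well plates, 48-hour exposure. At the GI50, growth is halved.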 Active and inactive are the calls of the source. No stated cut-off is given here; in the data, active = GI50 up to about 1.1 µM and inactive = higher.
# What was measured:
# Test in all cases: NCI anticancer screen, dose series, 48 h
# [1] = system: UO-31
# [2] = system: SK-MEL-5
# [3] = system: M14
# [4] = system: A549
# [5] = system: DU-145
# [6] = system: SN12C
# [7] = system: SR
# [8] = system: UACC-62
# [9] = system: Hs-578T
# [10] = system: T47D
# [11] = system: KM12
# [12] = system: NCI/ADR-RES
# [13] = system: MDA-MB-231
# [14] = system: CAKI-1
# [15] = system: NCI-H226
# [16] = system: UACC-257
# [17] = system: MDA-MB-435
# [18] = system: HL-60
# [19] = system: IGROV-1
# [20] = system: BT-549
SMILES,GI50 [1],GI50 [2],GI50 [3],GI50 [4],GI50 [5],GI50 [6],GI50 [7],GI50 [8],GI50 [9],GI50 [10],GI50 [11],GI50 [12],GI50 [13],GI50 [14],GI50 [15],GI50 [16],GI50 [17],GI50 [18],GI50 [19],GI50 [20]
Cc1cn(C2OC(CO[Si](C)(C)C(C)(C)C)/C(=C\C#N)C2O[Si](C)(C)C(C)(C)C)c(=O)[nH]c1=O (stereo not drawn),> 100 µM (inactive),6.87 µM (inactive),> 100 µM (inactive),41.6 µM (inactive),81.8 µM (inactive),64.6 µM (inactive),> 100 µM (inactive),44.4 µM (inactive),> 100 µM (inactive),5.3 µM (inactive),27.1 µM (inactive),> 100 µM (inactive),> 100 µM (inactive),> 100 µM (inactive),> 100 µM (inactive),63.5 µM (inactive),56.1 µM (inactive),,,
O=C(O)c1cc(-c2ccc3c(O)ccc(O)c3c2)ccc1O,17.4 µM (inactive),14.7 µM (inactive),21.9 µM (inactive),33.5 µM (inactive),24 µM (inactive),15.7 µM (inactive),3.51 µM (inactive),18.2 µM (inactive),18.7 µM (inactive),6.4 µM (inactive),20.3 µM (inactive),28.1 µM (inactive),23.2 µM (inactive),16.6 µM (inactive),19.7 µM (inactive),17.4 µM (inactive),17.5 µM (inactive),> 100 µM (inactive),16.7 µM (inactive),
COC1(OC)CCCCCCCCC(OC)(OC)CCCCCCCC1,0.553 µM (active),> 100 µM (inactive),> 100 µM (inactive),> 100 µM (inactive),> 100 µM (inactive),> 100 µM (inactive),> 100 µM (inactive),> 100 µM (inactive),> 100 µM (inactive),> 100 µM (inactive),> 100 µM (inactive),> 100 µM (inactive),,> 100 µM (inactive),> 100 µM (inactive),> 100 µM (inactive),> 100 µM (inactive),> 100 µM (inactive),> 100 µM (inactive),
CC(C)Sc1nncc(/C(N)=N/O)n1,> 100 µM (inactive),> 100 µM (inactive),> 100 µM (inactive),> 100 µM (inactive),> 100 µM (inactive),> 100 µM (inactive),> 100 µM (inactive),> 100 µM (inactive),,> 100 µM (inactive),88.5 µM (inactive),> 100 µM (inactive),> 100 µM (inactive),> 100 µM (inactive),> 100 µM (inactive),> 100 µM (inactive),> 100 µM (inactive),,> 100 µM (inactive),> 100 µM (inactive)
O=C(CBr)N1CCC2(CC1)SSC1(CCN(C(=O)CBr)CC1)S2,0.593 µM (active),,1.53 µM (inactive),1.98 µM (inactive),,1.93 µM (inactive),0.178 µM (active),1.47 µM (inactive),1.72 µM (inactive),,1.7 µM (inactive),1.97 µM (inactive),2.33 µM (inactive),,,2.76 µM (inactive),2.12 µM (inactive),1.59 µM (inactive),,
CCOC(=O)C1=C(C)N(c2ccccc2)C2=C(C(=O)N(c3ccccc3)C2c2ccccc2)C1c1ccccc1 (stereo not drawn),> 100 µM (inactive),> 100 µM (inactive),> 100 µM (inactive),> 100 µM (inactive),,> 100 µM (inactive),> 100 µM (inactive),> 100 µM (inactive),,,> 100 µM (inactive),,,> 100 µM (inactive),> 100 µM (inactive),> 100 µM (inactive),,> 100 µM (inactive),> 100 µM (inactive),
